These results are taken from ChEMBL document CHEMBL1177798, “Interaction of aminoadamantane derivatives with the influenza A virus M2 channel-docking using a pore blocking model” (Bioorg Med Chem Lett, 2010).

This assay has as its target Matrix protein 2 (Influenza A virus, UniProt P06821). The assay can be described thus: Binding affinity to Influenza A Weybridge(H7N7) virus Matrix protein 2 by spectrophotometry. More on the design: species or system Influenza A virus (A/chicken/FPV/Weybridge(H7N7)).

Molecules are shown by their SMILES.

Matrix protein 2, sequence (P06821 whole entry): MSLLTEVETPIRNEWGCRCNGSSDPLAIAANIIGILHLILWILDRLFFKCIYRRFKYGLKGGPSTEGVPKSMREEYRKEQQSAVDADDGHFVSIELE

On to `NC1CCCC1` [CYCLOPENTANAMINE], for which the Kd result was “Not Active”.
